Measurements taken from patent US20140163100A1, “Methods of Treating Multiple Sclerosis and Preserving and/or Increasing Myelin Content” (BIOGEN IDEC MA INC., priority 2011, published 2014).
Structures can show the parent of a compound that is named as a salt. Where two headings read alike, the source gives them in different places.

What was measured:
mouse MS model = test: Mouse MS model, neuroprotective effects; format: in vivo; conditions: mouse MS model with features of advanced stages of chronic forms of MS
Excerpt: Although many well characterized rodent and primate models for MS exist, only recently have the characteristic features of progressive MS been identified in select animal models.

[1] = tested on: subjects with relapsing-remitting multiple sclerosis; test: First Phase 3 clinical trial: magnetization transfer ratio (MTR) substudy; format: in vivo, human
Excerpt: The study described in Example 1 included a substudy to examine change in magnetization transfer ratio (“MTR”) with treatment. MTR imaging has been proposed for use as a biomarker of changes in the myelin content of brain white matter. The aim of the study was to determine change in brain and lesion MTR in RR-MS. MTR scans were obtained in a subset of subjects at baseline and 6, 12 and 24 months, using manufacturer-supplied MT pulse sequences. MTR substudies were implemented at 64 of 76 MRI sites (84%) and included a total of 540 subjects: 176 in the dimethyl fumarate 240 mg bid group, 184 in the dimethyl fumarate 240 mg tid group, and 180 in the placebo group.

[2] = tested on: subjects with relapsing-remitting multiple sclerosis; test: First Phase 3 clinical trial: relapse and disability efficacy; format: in vivo, human; conditions: for reduction of ARR vs placebo / reduction of risk of confirmed, 12-week disability progression: 2 years; for annualized relapse rate (ARR): 2 years (placebo 0.36); for reduction of risk of confirmed, 12-week disability progression: EDSS; for reduction of proportion of subjects relapsing compared with placebo: at 2 years
Procedure: The primary endpoint of the study in Example 1 was the proportion of subjects relapsing at 2 years, with relapses confirmed by an independent neurology evaluation committee (“INEC”) to ensure consistent and accurate reporting across sites. Secondary clinical efficacy endpoints at 2 years were the annualized relapse rate (“ARR”) and disability progression using EDSS. Efficacy analyses were conducted on the intention-to-treat population.

[3] = First Phase 3 clinical trial: safety and tolerability (adverse events); format: in vivo, human
Procedure: Safety and tolerability were assessed by continuous adverse event (“AE”) monitoring and laboratory tests at all monthly visits. Additionally, physical examination, vital signs, and 12-lead ECG were evaluated. As an ethical consideration, subjects' reconsent was required following any protocol-defined disability progression or relapse.

[4] = tested on: subjects with relapsing-remitting multiple sclerosis; test: First Phase 3 clinical trial: MRI lesion loads; format: in vivo, human; conditions: 2 years
Procedure: Subjects from 76 sites out of 198 participating in the study described in Example 1 had MRI scans at baseline, 24 weeks, 1 year and 2 years. Number of new or newly enlarging T2 lesions and number of gadolinium-enhancing (Gd+) lesions at 2 years were secondary endpoints of the study. Analyses were conducted on the MRI intention-to-treat population.

[5] = human, in vivo
Procedure: A second randomized, double-blind, placebo-controlled, multicenter, phase 3 clinical trial was conducted to evaluate the efficacy and safety of dimethyl fumarate over 2 years in subjects with relapsing-remitting multiple sclerosis (“RR-MS”).
Subjects 18-55 years of age with RR-MS and an Expanded Disability Status Scale score of 0.0-5.0 (inclusive) and having one or more relapses in the prior 12 months or one or more Gd^+ lesions in the prior 6 weeks were eligible for enrolment. Subjects were randomly assigned to placebo, dimethyl fumarate 240 mg PO twice daily (BID), dimethyl fumarate three times daily (TID), glatiramer acetate 20 mg SC once daily (QD).

[6] = tested on: subjects with relapsing-remitting multiple sclerosis; test: First Phase 3 clinical trial: quality of life (SF-36, VAS); format: in vivo, human; conditions: for mean SF-36 PCS score: at 2 years (placebo 42.0); for SF-36 Mental Component Scale score: at 2 years (placebo 44.6); for mean VAS score (global impression of well-being): at 2 years (placebo 60.3)
Procedure: Subjects participating in the study described in Example 1 were provided an SF-36 questionnaire to measure the subjects' health status and health-related quality of life (“QoL”) at baseline, 6, 12, and 24 months, on eight multi-item, 100-point scales, with higher scores indicating higher QoL. These scores were used to calculate the Physical Component Summary (“PCS”) and Mental Component Summary (“MCS”) scores. In addition, the subjects' global impression of well-being was assessed at baseline and every 3 months using a 100-point, visual analogue scale (VAS) with higher score indicating improvement in well-being.

COC(=O)/C=C/C(=O)OC [dimethyl fumarate]
neuroprotective effects (mouse MS model): reduction in demyelination and axonal damage | increase from baseline in whole brain MTR ([1]; 240 mg bid (placebo −0.386%)): 0.129% | increase from baseline in normal appearing brain tissue MTR ([1]; 240 mg bid (placebo −0.392%)): 0.190% | increase from baseline in whole brain MTR ([1]; 240 mg tid (placebo −0.386%)): 0.096% | increase from baseline in normal appearing brain tissue MTR ([1]; 240 mg tid (placebo −0.392%)): 0.115% | reduction of ARR vs placebo ([2]; 240 mg BID): 53% | annualized relapse rate (ARR) ([2]; 240 mg BID): 0.17 | reduction of risk of confirmed, 12-week disability progression ([2]; 240 mg BID): 38% | Annualized relapse rate at 2 years, % Reduction vs. Placebo ([2]; 240 mg BID, <40 years): 63% | Proportion of patients relapsed at 2 years, % Reduction vs. Placebo ([2]; 240 mg BID, <40 years): 59% | Time to confirmed disability progression at 2 years, % Reduction vs. Placebo ([2]; 240 mg BID, <40 years): 62% | reduction of proportion of subjects relapsing compared with placebo ([2]; 240 mg BID): 49% | Annualized relapse rate at 2 years, % Reduction vs. Placebo ([2]; 240 mg BID, ≧40 years): 34% | Proportion of patients relapsed at 2 years, % Reduction vs. Placebo ([2]; 240 mg BID, ≧40 years): 26% | Time to confirmed disability progression at 2 years, % Reduction vs. Placebo ([2]; 240 mg BID, ≧40 years): 8% | Annualized relapse rate at 2 years, % Reduction vs. Placebo ([2]; 240 mg TID, <40 years): 59% | Proportion of patients relapsed at 2 years, % Reduction vs. Placebo ([2]; 240 mg TID, <40 years): 56% | Time to confirmed disability progression at 2 years, % Reduction vs. Placebo ([2]; 240 mg TID, <40 years): 38% | Annualized relapse rate at 2 years, % Reduction vs. Placebo ([2]; 240 mg TID, ≧40 years): 29% | Proportion of patients relapsed at 2 years, % Reduction vs. Placebo ([2]; 240 mg TID, ≧40 years): 37% | Time to confirmed disability progression at 2 years, % Reduction vs. Placebo ([2]; 240 mg TID, ≧40 years): 32% | reduction of ARR vs placebo ([2]; TID): 48% | annualized relapse rate (ARR) ([2]; TID): 0.19 | reduction of risk of confirmed, 12-week disability progression ([2]; TID): approximately 34% | reduction of proportion of subjects relapsing compared with placebo ([2]; TID): 50% | efficacy by age subgroup ([2]; subjects under 40 years vs 40 years or older, 240 mg BID and TID): more efficacious in subjects under 40 years of age | deaths ([3]; dimethyl fumarate TID arm, result of a motor vehicle accident): One death | MS relapse reported as AE ([3]; human, in vivo): 27% | opportunistic infections ([3]; human, in vivo): no opportunistic infections were observed | AEs reported by subjects ([3]; human, in vivo, 2 years): 95% | Incidence of infections and infestations ([3]; human, in vivo, 2 years): 64-68% | Incidence of severe infections and infestations ([3]; human, in vivo, 2 years): 2-3% | Severe AEs reported ([3]; human, in vivo, 2 years): 17% | subjects discontinuing treatment due to AEs (number) ([3]; human, in vivo, 2 years): 68 | subjects discontinuing treatment due to AEs (percent) ([3]; human, in vivo, 2 years): 16% | subjects reporting flushing ([3]; human, in vivo, 2 years): 32% | subjects withdrew from the study ([3]; human, in vivo, 2 years): approximately 23% | reduction of mean number of Gd+ lesions compared with placebo ([4]; 240 mg BID): 94% | reduction of mean number of new or newly enlarging T2 lesions compared with placebo ([4]; 240 mg BID): 85% | reduction of mean number of Gd+ lesions compared with placebo ([4]; TID): 72% | reduction of mean number of new or newly enlarging T2 lesions compared with placebo ([4]; TID): 74% | most frequently reported AEs associated with dimethyl fumarate [5]: flushing, diarrhea, nausea, upper respiratory tract infection, abdominal pain, and proteinuria | AEs reported by subjects ([5]; 2 years): 92% | subjects discontinuing treatment due to AEs (number) ([5]; 2 years): 41 | subjects discontinuing treatment due to AEs (percent) ([5]; 2 years): 12% | subjects withdrew from the study ([5]; 2 years): 21% | mean SF-36 PCS score ([6]; 240 mg BID): 43.4 | SF-36 Mental Component Scale score ([6]; 240 mg BID): 45.5 | mean VAS score (global impression of well-being) ([6]; 240 mg BID): 64.3 | mean SF-36 PCS score ([6]; TID): 44.2 | SF-36 Mental Component Scale score ([6]; TID): 46.1 | mean VAS score (global impression of well-being) ([6]; TID): 65.7
